Experiments:
[1] = cited from earlier work
[2] = Temozolomide pharmacokinetics and CNS penetration (literature); assay type: in vivo, human; conditions: from 20% of plasma concentration
From the text: An efficient treatment of GBM is difficult to develop for a series of reasons. First, GBM is characterized by many dysregulated pathways that can hardly be all blocked and repaired at the same time with a single therapy [Alifieris, C.; Trafalis, D. T. “Glioblastoma multiforme: pathogenesis and treatment” Pharmacol. Ther. 2015, 152, 63-82.]. Second, GBM partly consists of infiltrating cells that cannot easily be all removed by surgery. Third, GBM early diagnosis is not carried out routinely. Sensitive imaging techniques, such as MRI are still too expensive to be carried out on a regular basis over the whole population. Fourth, the optimization of a clinical protocol for GBM treatment requires the use of an accurate and representative preclinical GBM model. Currently used mouse and rat models are not appropriate because their tumors are typically ˜10^3-10^4 smaller than human GBM [Biasibetti, E.; Valazza, A.; Capucchio, M. T.; Annovazzi, L.; Battaglia. L.; Chirio, D.; Gallarate, M.; Mellai, M.; Muntoni, E.; Peira, E.; Riganti, C.; Schiffer, D.; Panciani, P.; Lanotte, M. “Comparison of Allogeneic and Syngeneic Rat Glioma Models by Using MRI and Histopathologic Evaluation” Comp. Med. 2017, 67, 147-156.]. […]

experimentally estimated log BB (Brain-Blood Distribution) [2]: around −0.7
SMILES: Cn1nnc2c(C(N)=O)ncn2c1=O [TMZ, temozolomide]
concentration in brain and cerebrospinal fluid, % of the plasma concentration ([1]; 35 patients with malignant gliomas): approximately 20%
elimination half-life ([1]; oral administration): approximately 1.8 hours

Source: patent US20220304957A1, “ANTI-CANCER COMPOSITIONS AND METHODS OF USE” (Board of Supervisors of Louisiana State University and …, priority 2019, published 2022)
